Measured values as given in patent publication US20240277641A1, “METHODS FOR TREATING NERVOUS SYSTEM DISORDERS WITH […] AGENTS” (PAXMEDICA, INC., priority 2021, published 2024).
Read-outs that look alike come from different tables or passages of the source.

How the values were obtained:
mouse model of epilepsy = conditions: cited from earlier work
[1] = test system: male children with Autism Spectrum Disorder (ASD); assay: Efficacy by Aberrant Behavior Checklist (ABC) versus suramin blood levels in the ASD trial; format: in vivo, human; conditions: 10 or 20 mg/kg IV
Procedure: (§1) This is the first time that multiple doses were studied in patients with neurodevelopmental disorders, and where they were observed over a long term duration. Previously, only a single 20 mg/kg dose had been described in an ASD study. See, R. K. Naviaux, “Antipurinergic therapy for autism—An in-depth review”, Mitochondrion 43, pp. 1-15 (2018), available online Dec. 16, 2017.
Each study participant attended a total of 7 visits, screening period (Visit 1.14 days), Randomization visit (Visit 2 day 1), treatment follow up visits (visit 3; day 14), treatment visit (visit 4; Day 28), treatment visit (visit 5; Day 56), End of treatment visit (visit 6; Day 77) and EOS (visit 7; day 98). Window period for screening until visit 2 will be ±14 days (thus the study procedures can be performed over 14 days) and for visit 2 onwards will be ±2 days (thus the procedures can be performed over 5 days) (Visit 2 to 7).

[2] = cited from earlier work
[3] = test system: male children with Autism Spectrum Disorder (ASD); assay: Adverse effects in the ASD trial; format: in vivo, human
Procedure: as §1
Since only predose, 1 hour post dose, and before the next dose administration samples were collected, it was not possible to determine the exact distribution and elimination curves and therefore extrapolated parameters such as AUC0-∞ and T1/2 were not determinable.

[4] = Suramin plasma pharmacokinetics in three-arm, randomized, double blind, placebo-controlled trial, intravenous infusion; format: in vivo, human; conditions: for Plasma Concentration / AUCInterval / AUCinterval/Dose / Cmax/Dose / Cmin / AUCOverall / AUCVisit 4 / AUCVisit 5 / AUCVisit 7 / Cmin, Visit 5 / Cmin, Visit 7 / Cmin. overall / Cmax / concentration at 28 day: mean; for half-life / Cmax / concentration at 28 day: male, human, plasma; for half-life: intravenous; for concentration at 28 day: read-out: Cmin, Visit 4
Description: The following Table 2 outlines the visit schedule:
A non-compartmental pharmacokinetic (PK) approach consistent with the intravenous route of administration was used to estimate PK parameters in Watson LIMS software (version 7.5). […] All concentration values were in μg/mL, and all time points were in days as provided by the bioanalytical testing facility. Nominal dose concentrations and sampling times were used. The area under the plasma concentration-time curve (AUC) estimations were calculated on profiles having at least a quantifiable post-dose and pre-dose prior to the next dosing occasion. The observed maximum plasma concentration (Cmax) and time of Cmax (Tmax) were determined directly from the data.
Pharmacokinetic parameters were estimated using a non-compartmental approach consistent with intravenous infusion route of administration.
For area under the curve (AUC) estimation, measured plasma concentration for post dose and pre dose before the next dosing event were needed. For this study, samples for pharmacokinetic analysis were collected on days 1, 28, 56, and 96.
Whenever possible, standard deviation and coefficient of variation were determined by Watson LIMS software. For analyses that were not supported by Watson (i.e. custom comparisons), Excel was used and the statistics reported as determined by excel algorithms. Note that in either case, when the number of data points was less than three, standard deviation and coefficient of variation could not be calculated.
The route of administration was intravenous infusion over a 30 minute period on visits 2, 4, and 5.

[5] = 10 mg/kg to 20 mg/kg dose range
[6] = Table 3A, 10 mg dose group, IV, children
[7] = Table 3C, 20 mg dose group, IV, children
[8] = Table 7, 10 mg/kg Dose, n = 13, IV
[9] = Table 7, 20 mg/kg Dose, n = 14, IV

SMILES: O=C(NCC1(N2CCN(c3ccccc3)CC2)CCOCC1)c1cccnc1Sc1ccccc1 [JNJ-47965567, 2-(Phenylthio)-N-[[tetrahydro-4-(4-phenyl-1-piperazinyl)-2H-pyran-4-yl]methyl]-3-pyridinecarboxamide]
- epileptic seizures (mouse model of epilepsy): suppress epileptic seizures

SMILES: Cc1ccc(C(=O)Nc2ccc(S(=O)(=O)O)c3cc(S(=O)(=O)O)cc(S(=O)(=O)O)c23)cc1NC(=O)c1cccc(NC(=O)Nc2cccc(C(=O)Nc3cc(C(=O)Nc4ccc(S(=O)(=O)O)c5cc(S(=O)(=O)O)cc(S(=O)(=O)O)c45)ccc3C)c2)c1 [suramin, 1,3,5-Naphthalenetrisulfonic acid, 8,8′-[carbonylbis[imino-3,1-phenylenecarbonylimino(4-methyl-3,1-phenylene)carbonylimino]]bis-]
- change in ABC scores from baseline versus exposure [1]: A greater change in ABC scores from baseline was observed with lower exposures
- correlation between blood levels and efficacy (ABC) ([1]; multiple doses): dynamic nonlinear correlation between antipurinergic blood levels and efficacy
- half-life, average ([2]; average): 50 days
- oral bioavailability ([2]; in vivo, po): poor oral bioavailability
- adverse effects such as visible rash or vomiting ([3]; 10 mg/kg dose group): only one event
- adverse effects such as visible rash or vomiting ([3]; 20 mg/kg dose group): occurred mostly in the 20 mg/kg dose group
- Plasma Concentration ([4]; 10 mg/kg IV, visit 2, day 1, 1 h post-infusion): 229000 ng/mL
- Plasma Concentration ([4]; 10 mg/kg IV, visit 4, day 28, 1 h post-infusion): 157000 ng/mL
- Plasma Concentration ([4]; 10 mg/kg IV, visit 4, day 28, pre-dose): 4310 ng/mL
- Plasma Concentration ([4]; 10 mg/kg IV, visit 5, day 56, 1 h post-infusion): 164000 ng/mL
- Plasma Concentration ([4]; 10 mg/kg IV, visit 5, day 56, pre-dose): 7960 ng/mL
- Plasma Concentration ([4]; 10 mg/kg IV, visit 7, day 96, EOS): 7870 ng/mL
- Dose proportionality of AUC0-96 [4, 5]: nearly dose proportional
- Dose proportionality of Cmax [4, 5]: less than dose proportional
- Plasma Concentration ([4]; 20 mg/kg IV, visit 2, day 1, 1 h post-infusion): 328000 ng/mL
- Plasma Concentration ([4]; 20 mg/kg IV, visit 4, day 28, 1 h post-infusion): 327000 ng/mL
- Plasma Concentration ([4]; 20 mg/kg IV, visit 4, day 28, pre-dose): 11000 ng/mL
- Plasma Concentration ([4]; 20 mg/kg IV, visit 5, day 56, 1 h post-infusion): 332000 ng/mL
- Plasma Concentration ([4]; 20 mg/kg IV, visit 5, day 56, pre-dose): 21100 ng/mL
- Plasma Concentration ([4]; 20 mg/kg IV, visit 7, day 96, EOS): 23400 ng/mL
- AUCInterval [4, 6]: 4780 µg·days/mL
- AUCinterval/Dose [4, 6]: 478 µg·days/mL/mg
- Cmax/Dose [4, 6]: 24.4 µg/mL/mg
- Cmin [4, 6]: 4300 ng/mL
- AUCInterval [4, 7]: 9510 µg·days/mL
- AUCinterval/Dose [4, 7]: 475 µg·days/mL/mg
- Cmax/Dose [4, 7]: 18.3 µg/mL/mg
- Cmin [4, 7]: 10600 ng/mL
- AUCOverall [4, 8]: 4600.0 µg·days/mL
- AUCVisit 4 [4, 8]: 1195.6 µg·days/mL
- AUCVisit 5 [4, 8]: 1386.7 µg·days/mL
- AUCVisit 7 [4, 8]: 2017.7 µg·days/mL
- AUCinterval/Dose [4, 8]: 460.0 µg·days/mL/mg
- Cmax/Dose [4, 8]: 18.1 µg/mL/mg
- Cmin, Visit 5 [4, 8]: 7700 ng/mL
- Cmin, Visit 7 [4, 8]: 7700 ng/mL
- Cmin. overall [4, 8]: 4400 ng/mL
- AUCOverall [4, 9]: 10203.6 µg·days/mL
- AUCVisit 4 [4, 9]: 2431.4 µg·days/mL
- AUCVisit 5 [4, 9]: 3121.4 µg·days/mL
- AUCVisit 7 [4, 9]: 4650.7 µg·days/mL
- AUCinterval/Dose [4, 9]: 510.1 µg·days/mL/mg
- Cmax/Dose [4, 9]: 18.0 µg/mL/mg
- Cmin, Visit 5 [4, 9]: 21900 ng/mL
- Cmin, Visit 7 [4, 9]: 24200 ng/mL
- Cmin. overall [4, 9]: 10600 ng/mL
- half-life ([4]; 10 mg low dose level, inferred from lack of accumulation): < 28 days
- half-life ([4]; 20 mg high dose level, inferred from accumulation): > 28 days
- Cmax ([4]; Table 3A, 10 mg dose group, IV, children, read-out: Cmax): 244000 ng/mL
- Cmax ([4]; Table 3C, 20 mg dose group, IV, children, read-out: Cmax): 365000 ng/mL
- Cmax ([4]; Table 7, 10 mg/kg Dose, n = 13, IV, read-out: Cmax, Oveall): 181000 ng/mL
- concentration at 28 day [4, 8]: 4400 ng/mL
- Cmax ([4]; Table 7, 20 mg/kg Dose, n = 14, IV, read-out: Cmax, Oveall): 359000 ng/mL
- concentration at 28 day [4, 9]: 10900 ng/mL
